Reference: PMC8954816, “Quantitative Analysis of Daporinad (FK866) and Its In Vitro and In Vivo Metabolite Identification Using Liquid Chromatography-Quadrupole-Time-of-Flight Mass Spectrometry” (Molecules, 2022)
Like-named read-outs stand apart in the source and are kept apart here.

Tests used:
[1] = Intravenous pharmacokinetic study of Daporinad in mice (plasma, LC-qTOF-MS, NCA); assay type: in vivo, mouse; conditions: for AUC(0-t) / Cmax / clearance / half-life / Vd: male, ICR; for AUC(0-t) / Cmax / clearance / half-life: n = 3; for Vd: n = 3, read-out: Vss
Procedure: The developed LC-qTOF-MS method was successfully applied to obtain the PK parameters of Daporinad in mouse plasma following IV administration at the doses of 5, 10 and 30 mg/kg. The concentrations of most PK samples were within the qualified calibration curve except some PK samples at early time point samples. Therefore, early time point PK samples were diluted appropriately with blank mouse plasma to ensure that every sample concentration was within the calibration curve range. The PK parameters were calculated with the non-compartmental analysis (NCA) using WinNonlin (version 8.0.0) and the results are summarized in Table 4.
An aliquot of 4 µL of STD or QC working solutions were spiked into 20 µL of blank mouse plasma, and 4 µL of make-up DMSO was spiked into 20 µL of the mouse PK sample to make it the same matrix condition as the STD and QC sample. Then, 100 µL of ISTD solution was added to STD, QC and the study sample. Then, the samples were vortexed for about 1 min and centrifuged at 10,000× g rpm for 5 min. After centrifugation, 75 µL of supernatant was taken and mixed with 75 µL of DW. After that, the aliquot was transferred to an LC vial for the LC-qTOF-MS analysis.
Male ICR mice (30 ± 3 g) were purchased from the Samtako biokorea co. (Pocheon, Gyeonggi, Korea) and housed in groups of 6~8 per cage and given standard rodent chow. The animals were fasted overnight with free access to water for at least 12 h before administration. Mice were distributed into three different dosing groups (n = 3 for each dosing group; 5, 10 and 30 mg/kg). The blood sampling time points were 2, 10, 30, 60, 120, 240 and 420 min after administration. The sampling blood samples were centrifuged at 12,000× g rpm for 5 min and the plasma was transferred to another tube and then stored at −20 °C until further analysis. All experiment performed on the mouse were approved by abiding the animal care protocol (no. CNU-01104) from Chungnam National University. The procedures were abided by the guidelines established by the Association for Assessment and Accreditation of Laboratory Animal Care International (AAALAC International).
Data acquisition and LC-qTOF-MS operation was conducted using Analyst® TF Version 1.6 (Sciex, Foster City, CA, USA). MultiQuant® Version 2.1.1 (Sciex, Foster City, CA, USA) was used for the peak integration for Daporinad quantification. PeakView® Version 2.2 (Sciex, Foster City, CA, USA) and MetabolitePilot™ Version 2.0.2 (Sciex, Foster City, CA, USA) were used for the structural elucidation of Daporinad metabolites. The descriptive statistics for the qualification studies were calculated with Excel 2015 (Microsoft). Pharmacokinetic parameters were calculated in a non-compartmental analysis using WinNonlin® version 8.0.0 (Certara, Princeton, NJ, USA).

[2] = Preliminary stability tests for Daporinad in mouse plasma; assay type: in vitro ADME; conditions: for Freeze–thaw stability, mean accuracy: 3 cycles; for Freeze–thaw stability, mean accuracy / Short-term stability, mean accuracy: n = 3; for Short-term stability, mean accuracy: 4 h
Procedure: Daporinad was stable in mouse plasma for […] three cycles of freeze–thawing and also stable during at least 2 weeks at −80 °C storage condition.
Three levels of QC were used for the short-term, freeze–thaw and long-term stability assessments. The short-term stability assessment was carried out at RT for 4 h, and the long-term stability samples were kept frozen at −80 °C for 2 weeks. The freeze–thaw stability was evaluated over three cycles of freezing (−80 °C) and thawing (RT). The stability test results were evaluated by confirming that the mean accuracy (%) of the nominal value which should be within ±25% acceptance criteria.

[3] = as above; assay type: in vitro ADME; conditions: 14 days, −20 °C, n = 3
[4] = mouse plasma, dose range 10 to 30 mg/kg

In the case of `O=C(/C=C/c1cccnc1)NCCCCC1CCN(C(=O)c2ccccc2)CC1` [Daporinad], the AUC(0-t) ([1]; mouse plasma, 5 mg/kg) is reported as 2860 ng·h/mL, the Cmax ([1]; mouse plasma, 5 mg/kg) is reported as 5480 ± 427 ng/mL and the clearance ([1]; mouse plasma, 5 mg/kg) is reported as 29.3 ± 3.7 mL/min/kg. The half-life ([1]; mouse plasma, 5 mg/kg) was 52.9 ± 7.3 min, the Vd ([1]; mouse plasma, 5 mg/kg) was 0.897 ± 0.199 L/kg and the AUC(0-t) ([1]; mouse plasma, 10 mg/kg) was 5950 ng·h/mL. For the same molecule, the Cmax ([1]; mouse plasma, 10 mg/kg) was 14900 ng/mL, the clearance ([1]; mouse plasma, 10 mg/kg) was 28.1 ± 2.78 mL/min/kg and the half-life ([1]; mouse plasma, 10 mg/kg) was 50.5 ± 4.88 min. It also gave a Vd ([1]; mouse plasma, 10 mg/kg) of 0.647 ± 0.0915 L/kg, an AUC(0-t) ([1]; mouse plasma, 30 mg/kg) of 29400 ng·h/mL and a Cmax ([1]; mouse plasma, 30 mg/kg) of 48100 ng/mL. It also gave a clearance ([1]; mouse plasma, 30 mg/kg) of 17.9 ± 5.11 mL/min/kg, a half-life ([1]; mouse plasma, 30 mg/kg) of 40.8 ± 0.95 min and a Vd ([1]; mouse plasma, 30 mg/kg) of 0.536 ± 0.11 L/kg. For the same molecule, the “Dose proportionality of Cmax and AUC” value ([1]; mouse plasma, dose range 5 to 10 mg/kg) was “dose proportional”, the “Dose proportionality of AUC” value [1, 4] was “supra-proportional” and the “Dose proportionality of Cmax” value [1, 4] was “dose-proportional”. The Clearance classification ([1]; mouse, 5 to 30 mg/kg) was “low to moderate clearance”, the “Freeze–thaw stability, mean accuracy” value ([2]; mouse plasma, −80 °C, High QC (1820 ng/mL)) was 116% and the “Freeze–thaw stability, mean accuracy” value ([2]; mouse plasma, −80 °C, Low QC (15.0 ng/mL)) was 105%. The “Freeze–thaw stability, mean accuracy” value ([2]; mouse plasma, −80 °C, Medium QC (165 ng/mL)) was 117%, the “Short-term stability, mean accuracy” value ([2]; mouse plasma, RT, High QC (1820 ng/mL)) was 104% and the “Short-term stability, mean accuracy” value ([2]; mouse plasma, RT, Low QC (15.0 ng/mL)) was 103%. The “Short-term stability, mean accuracy” value ([2]; mouse plasma, RT, Medium QC (165 ng/mL)) was 102%, the “Time stable in mouse plasma at room temperature” value ([2]; mouse plasma, RT) was “at least 4 h” and the “Time stable in mouse plasma at storage condition” value ([2]; mouse plasma, −80 °C storage) was “at least 2 weeks”. The “Freeze–thaw stability in mouse plasma” value ([2]; −80 °C, three cycles of freeze–thawing) was “stable”, the “Long-term stability, mean accuracy” value ([3]; High QC (1820 ng/mL)) was 91.4% and the “Long-term stability, mean accuracy” value ([3]; Low QC (15.0 ng/mL)) was 111%. The “Long-term stability, mean accuracy” value ([3]; Medium QC (165 ng/mL)) was 84.5%.
